Results: publication PMC6857051, “Proliferative regulation of alveolar epithelial type 2 progenitor cells by human Scnn1d gene” (Theranostics, 2019)

Tests used:
human αβγ-ENaC = target: T1, human αβγ-ENaC (Homo sapiens, UniProt P37088+P51168+P51170); assay: Two-electrode voltage clamp of αβγ-ENaC expressed in Xenopus oocytes; format: cell-based; settings: oocytes pre-treated, currents at -100 mV, n=5, Figure 3D
T1 construct: expressed in transfected cells; host or cells: Xenopus laevis oocytes injected with cRNA (pGEM HE vector)
T1 sequence (P37088 1-669): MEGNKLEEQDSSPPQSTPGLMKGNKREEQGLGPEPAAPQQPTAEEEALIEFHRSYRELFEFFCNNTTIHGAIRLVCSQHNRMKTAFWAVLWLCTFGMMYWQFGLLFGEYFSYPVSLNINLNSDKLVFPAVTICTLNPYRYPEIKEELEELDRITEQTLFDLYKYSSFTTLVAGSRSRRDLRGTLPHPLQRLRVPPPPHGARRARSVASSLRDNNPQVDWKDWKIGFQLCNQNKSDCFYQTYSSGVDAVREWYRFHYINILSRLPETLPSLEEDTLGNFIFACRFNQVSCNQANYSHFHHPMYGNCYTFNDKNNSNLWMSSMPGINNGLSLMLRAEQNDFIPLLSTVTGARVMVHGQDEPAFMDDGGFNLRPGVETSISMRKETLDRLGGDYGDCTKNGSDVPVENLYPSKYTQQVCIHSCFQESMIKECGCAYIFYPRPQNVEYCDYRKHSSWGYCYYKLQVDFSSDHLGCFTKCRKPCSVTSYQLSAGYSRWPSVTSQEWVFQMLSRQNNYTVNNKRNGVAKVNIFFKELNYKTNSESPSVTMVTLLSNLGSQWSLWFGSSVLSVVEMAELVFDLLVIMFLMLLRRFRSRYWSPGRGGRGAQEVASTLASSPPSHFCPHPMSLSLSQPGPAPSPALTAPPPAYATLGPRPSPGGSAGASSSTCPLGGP
T1 sequence (P51168 1-640): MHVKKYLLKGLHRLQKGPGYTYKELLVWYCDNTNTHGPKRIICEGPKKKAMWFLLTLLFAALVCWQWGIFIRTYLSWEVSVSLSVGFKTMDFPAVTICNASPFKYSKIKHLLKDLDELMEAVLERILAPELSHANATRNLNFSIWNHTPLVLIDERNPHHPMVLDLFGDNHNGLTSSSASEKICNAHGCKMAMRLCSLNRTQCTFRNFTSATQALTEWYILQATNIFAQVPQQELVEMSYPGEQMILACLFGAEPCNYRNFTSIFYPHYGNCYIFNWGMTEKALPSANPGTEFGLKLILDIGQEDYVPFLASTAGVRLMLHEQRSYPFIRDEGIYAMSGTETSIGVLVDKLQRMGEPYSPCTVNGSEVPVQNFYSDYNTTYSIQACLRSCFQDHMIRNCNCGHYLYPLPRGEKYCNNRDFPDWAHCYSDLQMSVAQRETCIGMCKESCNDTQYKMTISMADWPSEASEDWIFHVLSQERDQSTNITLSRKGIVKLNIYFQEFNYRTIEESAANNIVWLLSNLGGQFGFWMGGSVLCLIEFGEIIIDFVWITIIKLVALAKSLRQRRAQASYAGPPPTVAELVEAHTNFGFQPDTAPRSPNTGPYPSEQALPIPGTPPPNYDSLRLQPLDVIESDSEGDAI
T1 sequence (P51170 1-649): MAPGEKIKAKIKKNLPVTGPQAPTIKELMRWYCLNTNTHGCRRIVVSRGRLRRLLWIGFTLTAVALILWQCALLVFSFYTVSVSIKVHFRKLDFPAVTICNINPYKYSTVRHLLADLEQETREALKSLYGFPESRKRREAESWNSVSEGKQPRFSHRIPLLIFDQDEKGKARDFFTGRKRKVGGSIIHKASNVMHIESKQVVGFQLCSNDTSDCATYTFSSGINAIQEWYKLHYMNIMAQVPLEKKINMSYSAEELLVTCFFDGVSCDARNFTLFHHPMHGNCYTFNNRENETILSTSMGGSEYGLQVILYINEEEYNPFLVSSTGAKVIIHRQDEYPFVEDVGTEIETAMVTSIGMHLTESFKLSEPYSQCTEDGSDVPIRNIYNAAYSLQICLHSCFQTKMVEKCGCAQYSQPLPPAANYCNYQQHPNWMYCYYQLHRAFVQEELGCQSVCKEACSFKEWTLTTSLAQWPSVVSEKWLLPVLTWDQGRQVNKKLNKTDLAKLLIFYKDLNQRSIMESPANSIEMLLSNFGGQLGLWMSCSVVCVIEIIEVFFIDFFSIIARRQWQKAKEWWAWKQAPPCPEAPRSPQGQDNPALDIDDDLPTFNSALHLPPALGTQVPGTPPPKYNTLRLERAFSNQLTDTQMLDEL
Procedure: (§1) Cloning, in vitro transcription, and heterologous expression of δ802 ENaC and two-electrode voltage clamping assay. δ802 and other ENaC subunits were generated in human ENaC cDNAs cloned into a pGEM HE vector [4], [76]. cRNAs of human α, β, and γ ENaC were prepared as described previously. The stoichiometry of native ENaC complexes is unclear to date. Based on the studies in the last decade, several models have been proposed for αβγ ENaC channels: 1α1β1γ, 2α1β1γ, 3α3β3γ. Based on the EM structure of human αβγ ENaC [35], the currently acceptable model of human αβγ ENaC complexes is heterotrimeric (1α1β1γ). Thus we microinjected δ802:β:γ in a 1:1:1 subunit ratio. Oocytes were surgically removed from appropriately anesthetized adult female Xenopus laevis (Xenopus Express). Briefly, the ovarian tissue was removed from the frog under anesthesia by tricaine-S (Western Chemicals) through a small incision in the lower abdomen. Ovarian lobes were removed and digested in OR-2 calcium-free medium (in mM: 82.5 NaCl, 2.5 KCl, 1.0 MgCl2, 1.0 Na2HPO4, and 10.0 HEPES, pH 7.5) with the addition of 2 mg/ml collagenase (Roche, Indianapolis). Defolliculated oocytes were injected with ENaC cRNAs into the cytosol (25 ng per oocyte in 50 nl of RNase-free water) and incubated in regular OR-2 medium at 18°C. The two-electrode voltage-clamp technique was used to record whole-cell currents 48 h post injection. Oocytes were impaled with two electrodes filled with 3M KCl, having resistance of 0.5 - 2 MΩ. A TEV-200A voltage-clamp amplifier (Dagan) was used to clamp oocytes with concomitant recording of currents. Two reference electrodes were connected to the bath. The continuously perfused bathing solution was ND-96 medium (in mM: 96.0 NaCl, 1.0 MgCl2, 1.8 CaCl2, 2.5 KCl, and 5.0 HEPES, pH 7.5). Whole-cell currents were recorded as previously reported. Experiments were controlled by pCLAMP 10.7 software (Molecular Devices), and currents at -40 mV, -100 mV, and +80 mV were continuously monitored with data recorded at intervals of 10 sec. Data were sampled at the rate of 200 Hz and filtered at 50 Hz.

δ802αβγ-ENaC = target: T2, δ802αβγ-ENaC (Homo sapiens, UniProt P51168+P51170); assay: Two-electrode voltage clamp of δ802αβγ-ENaC expressed in Xenopus oocytes; format: cell-based; settings: oocytes pre-treated, currents at -100 mV, n=5, Figure 3D
T2 construct: We characterized full-length human δ802-ENaC expressed in both Xenopus oocytes and humanized transgenic mice; expressed in transfected cells; host or cells: Xenopus laevis oocytes injected with cRNA (pGEM HE vector)
T2 sequence (P51168 1-640): T1 sequence (P51168 1-640)
T2 sequence (P51170 1-649): T1 sequence (P51170 1-649)
Procedure: as §1

[1] = tested on: δ802- and γ-ENaC subunits; assay: Immunoblot of cleavage of tagged δ802- and γ-ENaC subunits in oocytes by serine proteases; format: biochemical, human; settings: 10 μg/ml, 45 minutes at room temperature
Procedure: Figure 3 Activation of δ802-containing ENaC channels by serine proteases. (A) Activation of δ802βγ ENaC expressed in Xenopus oocytes by two-chain urokinase plasminogen activator (tc-uPA). ENaC activity was measured at the membrane potential of -100 mV at defined time points post incubation with 10 μg/ml tc-uPA. n = 9-15. mean ± s.e.m. * P<0.05 vs data at the zero minute (min). (B) Time course of stimulatory effects of plasmin on δ802βγ-ENaC activity. n=12. * P<0.05. (C) Identification of subunit responsible for plasmin activation. Fold of amiloride-sensitive current (ASI) of ENaC-associated current in the presence of plasmin over that in the absence of plasmin was computed for oocytes expressing δ802+β+γ (δβγ), δ802 alone (δ), δ802+β(δβ), and δ802+γ (δγ). n = 12-15. * P<0.05. (D) Inhibitory effects of α-13 peptide on δ802αβγ- (δαβγ) and αβγ-ENaC activity post treatment of plasmin and aprotinin. Currents (I) at -100 mV were compared in the absence of amiloride (basal, open bar), presence of α-13 peptide (α13, closed bar), and amiloride (amil, grey bar). n=5. * P<0.05 vs basal currents, & P < 0.05 vs those in the presence of α-13 peptide. (E) Fractions of α-13 sensitive currents in cells pre-treated with plasmin and aprotinin. n=8. Control, without pre-treatment. (F) Cleavage of V5-tagged δ802- and γ-ENaC subunits by serine proteases. NI, non-injected oocytes as negative controls for ENaC expression. Oocytes incubated with chymotrypsin (CT, 10 μg/ml), plasmin (PI, 10 μg/ml) for 45 minutes at room temperature. Cells treated with the same volume of saline (‑) were controls for serine proteases.

Substance	effect of pre-treatment on αβγ-ENaC activity (human αβγ-ENaC)	effect of pre-treatment on δ802αβγ-ENaC activity (δ802αβγ-ENaC)	cleavage of δ802 subunit [1]
aprotinin	did not alter the current amplitude significantly	did not alter the current amplitude significantly	
chymotrypsin			Neither chymotrypsin nor plasmin nor endogenous furin cleaved the δ802 subunit
